Assay results: patent publication US6358885B1, “Substituted phenylheterocyclic herbicides” (Mississippi State University, priority 1992, dated 2002)

Legend:
Assay in all cases: Test G preemergence/postemergence greenhouse plant response rating 0 to 100
bermudagrass = format: in vivo, Cynodon dactylon; conditions: 0 to 100 scale
Source text: (§1) Seeds, rhizomes, or plant parts of alfalfa (Medicago ativa), annual bluegrass (Poa annua), bermudagrass (Cynodon dactylon), broadleaf signalgrass (Brachiaria plantaginea), common purslane (Portulaca oleracea), common ragweed (Ambrosia elatior), […] (Paspalum dilatatum), goosegrass (Eleusine indica), guineagrass (Panicum maximum), […] exaltata), johnsongrass (Sorghum halepense), large crabgrass (Digitaria sanguinalis), peanut (Arachis hypoagaea), pitted morningglory (Ipomoea lacunosa), purple nutsedge (Cyperus rotundus), sandbur (Cenchrus echinatus), smooth crabgrass (Digitaria ischaemum) and yellow nutsedge (Cyperus esculentus) were planted into greenhouse pots containing greenhouse planting medium. Each pot contained only one plant species. The test compound was dissolved in a non-phytotoxic solvent and applied preemergence and/or postemergence to the plants. Preemergence applications were made within one day of planting the seeds or plant parts. Postemergence applications were applied when the plants were in the two to four leaf stage (three to twenty cm). Test chemicals were dissolved in a non-phytotoxic solvent and applied preemergence and postemergence to the plants. Untreated control plants and treated plants were placed in the greenhouse and visually evaluated for injury at 13 to 21 days after herbicide application. […] A dash (-) response indicates no test result.

dallisgrass = format: in vivo, Paspalum dilatatum; conditions: 0 to 100 scale
Source text: as §1

common ragweed = format: in vivo, Ambrosia elatior; conditions: 0 to 100 scale
Source text: as §1

goosegrass = format: in vivo, Eleusine indica; conditions: 0 to 100 scale
Source text: as §1

alfalfa = format: in vivo, Medicago ativa; conditions: 0 to 100 scale
Source text: as §1

peanut = format: in vivo, Arachis hypoagaea; conditions: 0 to 100 scale
Source text: as §1

purple nutsedge = format: in vivo, Cyperus rotundus; conditions: Rate 125 g/ha, 0 to 100 scale
Source text: as §1

johnsongrass = format: in vivo, Sorghum halepense; conditions: 0 to 100 scale
Source text: as §1

broadleaf signalgrass = format: in vivo, Brachiaria plantaginea; conditions: 0 to 100 scale
Source text: as §1

yellow nutsedge = format: in vivo, Cyperus esculentus; conditions: Rate 125 g/ha, 0 to 100 scale
Source text: as §1

guineagrass = format: in vivo, Panicum maximum; conditions: 0 to 100 scale
Source text: as §1

pitted morningglory = format: in vivo, Ipomoea lacunosa; conditions: 0 to 100 scale
Source text: as §1

common purslane = format: in vivo, Portulaca oleracea; conditions: 0 to 100 scale
Source text: as §1

smooth crabgrass = format: in vivo, Digitaria ischaemum; conditions: 0 to 100 scale
Source text: as §1

itchgrass = format: in vivo, Rottboellia exaltata; conditions: 0 to 100 scale
Source text: as §1

large crabgrass = format: in vivo, Digitaria sanguinalis; conditions: 0 to 100 scale
Source text: as §1

annual bluegrass = format: in vivo, Poa annua; conditions: 0 to 100 scale
Source text: as §1

## COc1cc(-c2nn3c(c2Cl)CCCC3)c(F)cc1Cl [Compound 29]
bermudagrass; POSTEMERGENCE, Rate 125 g/ha
  Plant response rating, Bermudagrass: 0
bermudagrass; POSTEMERGENCE, Rate 250 g/ha
  Plant response rating, Bermudagrass: 0
bermudagrass; PREEMERGENCE, Rate 125 g/ha
  Plant response rating, Bermudagrass: 0
bermudagrass; PREEMERGENCE, Rate 250 g/ha
  Plant response rating, Bermudagrass: 50
dallisgrass; POSTEMERGENCE, Rate 125 g/ha
  Plant response rating, Dallisgrass: 0
dallisgrass; POSTEMERGENCE, Rate 250 g/ha
  Plant response rating, Dallisgrass: 0
dallisgrass; PREEMERGENCE, Rate 125 g/ha
  Plant response rating, Dallisgrass: 80
dallisgrass; PREEMERGENCE, Rate 250 g/ha
  Plant response rating, Dallisgrass: 90
Common ragweed; POSTEMERGENCE, Rate 125 g/ha
  Plant response rating, Cmn Ragweed: 20
Common ragweed; POSTEMERGENCE, Rate 250 g/ha
  Plant response rating, Cmn Ragweed: 60
Common ragweed; PREEMERGENCE, Rate 125 g/ha
  Plant response rating, Cmn Ragweed: 20
Common ragweed; PREEMERGENCE, Rate 250 g/ha
  Plant response rating, Cmn Ragweed: 40
goosegrass; POSTEMERGENCE, Rate 125 g/ha
  Plant response rating, Goosegrass: 0
goosegrass; POSTEMERGENCE, Rate 250 g/ha
  Plant response rating, Goosegrass: 0
goosegrass; PREEMERGENCE, Rate 125 g/ha
  Plant response rating, Goosegrass: 90
goosegrass; PREEMERGENCE, Rate 250 g/ha
  Plant response rating, Goosegrass: 100
alfalfa; POSTEMERGENCE, Rate 125 g/ha
  Plant response rating, Alfalfa Var.: 0
alfalfa; POSTEMERGENCE, Rate 250 g/ha
  Plant response rating, Alfalfa Var.: 70
alfalfa; PREEMERGENCE, Rate 125 g/ha
  Plant response rating, Alfalfa Var.: 0
alfalfa; PREEMERGENCE, Rate 250 g/ha
  Plant response rating, Alfalfa Var.: 0
peanut; POSTEMERGENCE, Rate 125 g/ha
  Plant response rating, Peanuts: 0
peanut; POSTEMERGENCE, Rate 250 g/ha
  Plant response rating, Peanuts: 0
peanut; PREEMERGENCE, Rate 125 g/ha
  Plant response rating, Peanuts: 0
peanut; PREEMERGENCE, Rate 250 g/ha
  Plant response rating, Peanuts: 0
Purple nutsedge; POSTEMERGENCE
  Plant response rating, Purple Nutsedge: 0
Purple nutsedge; PREEMERGENCE
  Plant response rating, Purple Nutsedge: 0
johnsongrass; POSTEMERGENCE, Rate 125 g/ha
  Plant response rating, Johnsongrass: 0
johnsongrass; POSTEMERGENCE, Rate 250 g/ha
  Plant response rating, Johnsongrass: 0
johnsongrass; PREEMERGENCE, Rate 125 g/ha
  Plant response rating, Johnsongrass: 0
johnsongrass; PREEMERGENCE, Rate 250 g/ha
  Plant response rating, Johnsongrass: 0
Broadleaf signalgrass; POSTEMERGENCE, Rate 125 g/ha
  Plant response rating, Brdlf Sgnlgrass: 0
Broadleaf signalgrass; POSTEMERGENCE, Rate 250 g/ha
  Plant response rating, Brdlf Sgnlgrass: 0
Broadleaf signalgrass; PREEMERGENCE, Rate 125 g/ha
  Plant response rating, Brdlf Sgnlgrass: 0
Broadleaf signalgrass; PREEMERGENCE, Rate 250 g/ha
  Plant response rating, Brdlf Sgnlgrass: 0
Yellow nutsedge; POSTEMERGENCE
  Plant response rating, Yellow Nutsedge: 0
Yellow nutsedge; PREEMERGENCE
  Plant response rating, Yellow Nutsedge: 0
guineagrass; POSTEMERGENCE, Rate 125 g/ha
  Plant response rating, Guineagrass: 0
guineagrass; POSTEMERGENCE, Rate 250 g/ha
  Plant response rating, Guineagrass: 0
guineagrass; PREEMERGENCE, Rate 125 g/ha
  Plant response rating, Guineagrass: 0
guineagrass; PREEMERGENCE, Rate 250 g/ha
  Plant response rating, Guineagrass: 100
Pitted morningglory; POSTEMERGENCE, Rate 125 g/ha
  Plant response rating, Pit Morninglory: 0
Pitted morningglory; POSTEMERGENCE, Rate 250 g/ha
  Plant response rating, Pit Morninglory: 70
Pitted morningglory; PREEMERGENCE, Rate 125 g/ha
  Plant response rating, Pit Morninglory: 0
Pitted morningglory; PREEMERGENCE, Rate 250 g/ha
  Plant response rating, Pit Morninglory: 30
Common purslane; POSTEMERGENCE, Rate 125 g/ha
  Plant response rating, Cmn Purslane: 90
Common purslane; POSTEMERGENCE, Rate 250 g/ha
  Plant response rating, Cmn Purslane: 80
Common purslane; PREEMERGENCE, Rate 125 g/ha
  Plant response rating, Cmn Purslane: 0
Common purslane; PREEMERGENCE, Rate 250 g/ha
  Plant response rating, Cmn Purslane: 100
Smooth crabgrass; POSTEMERGENCE, Rate 125 g/ha
  Plant response rating, Smooth Crabgras: 0
Smooth crabgrass; POSTEMERGENCE, Rate 250 g/ha
  Plant response rating, Smooth Crabgras: 0
Smooth crabgrass; PREEMERGENCE, Rate 125 g/ha
  Plant response rating, Smooth Crabgras: 0
Smooth crabgrass; PREEMERGENCE, Rate 250 g/ha
  Plant response rating, Smooth Crabgras: 100
itchgrass; POSTEMERGENCE, Rate 125 g/ha
  Plant response rating, Itchgrass: 0
itchgrass; POSTEMERGENCE, Rate 250 g/ha
  Plant response rating, Itchgrass: 0
itchgrass; PREEMERGENCE, Rate 125 g/ha
  Plant response rating, Itchgrass: 100
itchgrass; PREEMERGENCE, Rate 250 g/ha
  Plant response rating, Itchgrass: 40
Large crabgrass; POSTEMERGENCE, Rate 125 g/ha
  Plant response rating, Large Crabgrass: 0
Large crabgrass; POSTEMERGENCE, Rate 250 g/ha
  Plant response rating, Large Crabgrass: 0
Large crabgrass; PREEMERGENCE, Rate 125 g/ha
  Plant response rating, Large Crabgrass: 80
Large crabgrass; PREEMERGENCE, Rate 250 g/ha
  Plant response rating, Large Crabgrass: 100
Annual bluegrass; POSTEMERGENCE, Rate 125 g/ha
  Plant response rating, Ann Bluegrass: 0
Annual bluegrass; POSTEMERGENCE, Rate 250 g/ha
  Plant response rating, Ann Bluegrass: 0
Annual bluegrass; PREEMERGENCE, Rate 125 g/ha
  Plant response rating, Ann Bluegrass: 0
Annual bluegrass; PREEMERGENCE, Rate 250 g/ha
  Plant response rating, Ann Bluegrass: 0
